Test results reported in patent US12459951B2, “Compounds that interact with RAS superfamily proteins for treatment of cancers, inflammatory diseases, rasopathies, and fibrotic disease” (SHY Therapeutics, LLC, priority 2022, dated 2025).

Legend:
MAPK p38 phosphorylation = test: MAPK p38 Activation Assay (western blot), Panc-1; assay type: cell-based, human; settings: at 10 μM, Panc-1 pancreatic cancer cell line; starred symbols = activation
Outline: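 Panc-1 cells (KRas G12D) were treated with compound for 6 h at 37 °C, at 10 μM or as serial dilutions for IC50, with 0.3% DMSO. Method 1 used overnight serum-starved cells (0.5% FBS) stimulated with 1.5 ng/ml EGF for 15 min; Method 2 used unstimulated cells in 10% FBS. Phospho-p38 (Thr180/Tyr182) was detected by western blot.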

KRas G12C mutant = test: Ras GTP Binding Domain Inhibition Assay (Ras Superfamily Assay); settings: 20 μM compound
Outline: (§1)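 His-tagged GTPases immobilised on nickel-coated plates, pre-incubated with compound (20 μM single point, or serial dilution for IC50) 3 h at room temperature, with or without 10-30 μg/mL Sos (residues 556-1049) in the final hour. Bound Cy3- or Cy5-GTP (100 nM, 45 min) measured by fluorescence after washing.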

KRas Q61H mutant = test: as above; settings: 20 μM compound
Outline: as §1

Rho-A = molecular target: T1, Rho-A (Homo sapiens, UniProt P61586); test: as above; settings: read-out: Rho-A: % inh..
T1 construct: made in house
T1 sequence (P61586 whole entry): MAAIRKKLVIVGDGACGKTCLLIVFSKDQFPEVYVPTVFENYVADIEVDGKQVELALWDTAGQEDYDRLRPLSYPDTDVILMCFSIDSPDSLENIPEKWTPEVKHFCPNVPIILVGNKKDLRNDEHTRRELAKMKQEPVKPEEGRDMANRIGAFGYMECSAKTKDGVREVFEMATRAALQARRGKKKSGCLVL
Outline: as §1

Compound: COc1cc(Nc2nc(-c3nccn3C)nn3cc(-c4ccn(C(C)C)n4)c(-c4ccccc4)c23)ncn1 [Compound 22, 6-(1-Isopropyl-1H-pyrazol-3-yl)-N-(6-methoxypyrimidin-4-yl)-2-(1-methyl-1H-imidazol-2-yl)-5-phenylpyrrolo[2,1-f][1,2,4]triazin-4-amine]
- % inh of MAPK p38 in Panc-1 (MAPK p38 phosphorylation): H* (H* ≥ 100% activation)
- KRas G12C mutant + SOS: % inh. (KRas G12C mutant; with SOS): A (A = 1-25% inhibition)
- KRas G12C mutant: % inh. (KRas G12C mutant; without SOS): B (B = 26-49% inhibition)
- KRas Q61H mutant + SOS: % inh. (KRas Q61H mutant; with SOS): A (A = 1-25% inhibition)
- KRas Q61H mutant: % inh. (KRas Q61H mutant; without SOS): B (B = 26-49% inhibition)
- inhibition at 20 µM (Rho-A): 50 to 75%
